Measurements reported in patent US20090131484A1, “PREVENTIVE OR REMEDY FOR BOWEL DISEASE” (ASTELLAS PHARMA INC, priority 2005, published 2009).

Columns and labels:
[1] = test system: cholera toxin-induced intestinal hypersecretion; settings: mouse, in vivo; for effect on cholera toxin-induced intestinal hypersecretion: iv, 1 mg/kg
antigen-induced diarrhea = test: Mouse antigen-induced diarrheal model; assay type: in vivo; settings: Balb/c mice, OVA
Experimental: Balb/c female mice were used in this test. The animals were immunized through intraperitoneal administration of 50 μg of ovalbumin (OVA) and 1 mg of aluminium gel (alum), and after 2 weeks from the first immunization, they were again immunized under the same condition. […] The diarrheal condition was checked 1 hour after the OVA administration.

[2] = test system: TNBS-induced chronic colitis; test: Rat TNBS-induced chronic colitis model; settings: Wistar rats
[3] = test system: oxazolone-induced acute colitis; test: Rat oxazolone-induced acute colitis model; settings: DA rats
T84 cells = test: Chloride-dependent short circuit current (Isc) in human intestinal epithelial cells, Ussing system; assay type: cell-based; settings: for effect on forskolin-induced Isc increase: forskolin 10 μM; for effect on thapsigargin-induced continuous Isc increase / effect on transient Isc increase seen before the sustained Isc increase: thapsigargin 1 μM
Experimental: It is known that water secretion from epithelial cells is correlated with chloride ion secretion, and the effect to water secretion from epithelial cells may be evaluated through chloride-dependent current measurement.
T84 cells, a human colon epithelial cell-derived cell line, were purchased from American Type Culture Collection (ATCC, USA). T84 cells (3×10^5 cells/well) were cultured on a polyethylenic mesh insert (Transwell® by Corning, USA)) on a 6-well microplate for 10 to 12 days. As the culture medium, 5% bovine calf serum-containing DMEM/F-12 (Gibco, USA) was used. The cultured T84 cells were set in the sample chamber of an Ussing short-circuit current measuring system, and the chloride-dependent short circuit current (Isc) was measured. Isc was induced by adding thapsigargin (1 μM) or forskolin (10 μM) to the T84 cell monolayer specimen at its top on the membrane side thereof. […] In each test, the data obtained by DPC addition were taken as chloride-dependent Isc base line data, and the effect of each test compound was revised.

[4] = test system: restrictive stress-induced diarrhea; test: Rat stress-induced diarrheal model; assay type: in vivo; settings: Wister rats
Experimental: Wister male rats were used in this test. The animals were restrained in individual restrictive cages for 4 hours and given stress thereby to have diarrhea. […] Each group consisted of 19 to 20 animals. The statistical pharmaceutical potency analysis of the test compound was attained as a significant chi-square test, and its multiplicity was corrected by Bonferroni multiple comparison.

## CN1C2CCCC1CC(NC(=O)c1nn(C)c3ccccc13)C2 (centres unmarked) [Gra, granisetron, reference compound]
[1]
  effect on cholera toxin-induced intestinal hypersecretion: effective

## CN(C)C(=O)C(CCN1CCC(O)(c2ccc(Cl)cc2)CC1)(c1ccccc1)c1ccccc1 [Lop, loperamide, reference compound]
[1]
  effect on cholera toxin-induced intestinal hypersecretion: effective

## C[C@]12C=CC(=O)C=C1CC[C@@H]1[C@@H]2[C@@H](O)C[C@@]2(C)[C@H]1CC[C@]2(O)C(=O)CO [Pred, prednisolone, reference compound]
antigen-induced diarrhea; 10 mg/kg po 1 hour before OVA
  effect on antigen-induced diarrhea (diarrheal symptom): almost completely inhibited

## O=C(O)c1cc(/N=N/c2ccc(S(=O)(=O)Nc3ccccn3)cc2)ccc1O [SSZ, sulfasalazine, reference compound]
[2]; 100 mg/kg po once a day
  effect on TNBS-induced colitis model: showed a relieving effect
[2]; TNBS colitis
  effect relative to that of the compound A (weaker): 1/500

## Cc1cc(C)c(C(=O)Nc2ccc(-n3nc(C(F)(F)F)cc3C(F)(F)F)cc2)cn1 [compound A, 4,6-Dimethyl-4′-[3,5-bis(trifluoromethyl)-1H-pyrazol-1-yl]nicotinanilide]
[1]; po
  effect on cholera toxin-induced intestinal hypersecretion (ileal loop weight per unit length): dose-dependently inhibited
  oral dose at which inhibition of cholera toxin-induced intestinal hypersecretion was significant: ≥ 0.3 mg/kg
[2]; 0.3 mg/kg po once a day
  effect on MPO activity exacerbation: inhibition of MPO activity exacerbation
  effect on diarrheal symptom: diarrheal symptom relief
  effect on intestinal tissue weight increase: inhibition of intestinal tissue weight increase
[2]; 0.3 mg/kg po once a day, 15 days after colitis induction
  effect on disease activity index: significant improvement effect
[3]; at least 0.1 mg/kg oral administration
  effect on diarrheal symptom: almost completely inhibited
[3]; oral 0.1, 1.0 or 10 mg/kg
  effect on MPO activity promotion: MPO activity promotion inhibition
  effect on diarrheal symptom: diarrheal symptom relief
  effect on intestinal tissue weight increase: intestinal tissue weight increase inhibition
[3]; oral 0.1, 1.0 or 10 mg/kg, 24 hours after colitis onset
  effect on disease activity index: significant improvement effect
[3]; oxazolone colitis
  dose for diarrhea-inhibiting effect relative to dose for colitis symptom relieving effect: about 1/100
T84 cells
  effect on forskolin-induced Isc increase: dose-dependently inhibited
  effect on thapsigargin-induced continuous Isc increase: inhibited
  effect on transient Isc increase seen before the sustained Isc increase: did not affect
[4]; 10 mg/kg oral administration group
  effect on incidence rate of restrictive stress-induced diarrhea: significant inhibition
[4]; 1.0 or 10 mg/kg po 24 hours and 1 hour before 4 hours restraint
  effect on incidence rate of restrictive stress-induced diarrhea: dose-dependently inhibited
antigen-induced diarrhea; 3 or 10 mg/kg po 1 hour before OVA
  effect on incidence rate of antigen-induced diarrhea: dose-dependently inhibited

## Clc1ccc(COC(Cn2ccnc2)c2ccc(Cl)cc2Cl)cc1 (centres unmarked) [econazole, reference compound]
T84 cells
  effect on forskolin-induced Isc increase: dose-dependently inhibited
  effect on thapsigargin-induced continuous Isc increase: inhibited
  effect on transient Isc increase seen before the sustained Isc increase: did not affect
